System: carcinoid syndrome and/or at least one neuroendocrine tumor
Test: treatment of a human patient with epothilone B (Example 1)
Format: in vivo
Method: A human patient experiencing 3 loose bowel movements each day, frequent nausea and anorexia presented a plasma serotonin level of 361 ng/ml and an octreotide scan showing foci of abnormal activity in the pelvis, liver, upper chest and neck. They received 2.5 mg/m^2 of epothilone B weekly every 3 of 4 weeks.

Compound: C/C(=C\c1csc(C)n1)[C@@H]1C[C@@H]2O[C@]2(C)CCC[C@H](C)[C@H](O)[C@@H](C)C(=O)C(C)(C)[C@@H](O)CC(=O)O1 [epothilone B]
- octreotide scan (2.5 mg/m^2 weekly every 3 of 4 weeks, after 6 doses plus further about two months): no evidence of disease
- octreotide scan (2.5 mg/m^2 weekly every 3 of 4 weeks, after 6 doses, before treatment foci in pelvis, liver, upper chest and neck): minimal focus of activity in the pelvis alone
- tumor burden of the patient (conclusion drawn from the observations in Example 1 ('make it likely')): significantly decreased
- plasma serotonin level (patient, 2.5 mg/m^2 weekly every 3 of 4 weeks, 6 doses plus further about two months, level before treatment 361 ng/ml, within normal limits): 62 ng/mL

From US20090246172A1, “COMPOSITIONS COMPRISING EPOTHILONES AND THEIR USE FOR THE TREATMENT OF CARCINOID SYNDROME” (priority 2001, published 2009)
